According to patent US20250295795A1, “PEPTIDE” (priority 2021, published 2025):

Legend:
HeLa cells = test: Time course of uptake in Hela cells (continuous live cell confocal microscopy, ROI profile analysis); type: cell-based, human; details: 1 μM; representative cells
Procedure: To better understand the mechanism by which tri-Tat A and tri-cTat B enter the cytosol and the nucleus, we investigated the uptake kinetics of the conjugates during the first 15 min after their addition to Hela cells using confocal live cell microscopy. Tri-Tat A (FIG. 3a) or tri-cTat B (FIG. 3b) (1 μM) were added to the cells and images acquired from 1 min to 15 min at 60 sec intervals. The two trimers show distinct uptake patters into Hela cells; to better understand the difference in uptake kinetics, we drew cross sectional profile plots through representative cells treated with tri-Tat A (FIG. 3c) and tri-cTat B (FIG. 3d). […] To investigate whether findings in individual cells also apply to larger populations, we extended the plot profile analysis by designating regions of interest (ROI) corresponding to plasma membrane, cytosol (excluding endosomes), nucleus, and nucleoli along the cross section, using information from brightfield images.^30 Average fluorescence intensities for each ROI, at each time point, in six cells per treatment group were calculated and plotted in FIGS. 3e-3h.
(§1) HeLa and CHO cells were cultured in DMEM supplemented with 10% FBS and penicillin/streptomycin. For post-wash experiments, Tat conjugate was added to the cells in serum free medium, cells incubated at 37° C. in an atmosphere of 5% CO2, culture medium removed at the desired time point, cells washed and transferred to the microscope for imaging. For time course or pre-wash experiments, cells were transferred to the microscope (incubation chamber at 37° C., 5% CO2) and Tat conjugate added directly to cell medium and cells imaged at desired time points. Co-delivery experiments were conducted by adding peptide trimer immediately followed by cargo into serum free medium. Samples were visualised using a Zeiss LSM 780 inverted confocal microscope fitted with a XLmultiS1 incubation chamber and Plan-Apochromat 63×/1.40 Oil DIC M27 objective. Images were analysed using ImageJ software. Digital adjustments and image processing are consistent throughout the manuscript, unless otherwise stated in the figure legend. Statistical analysis was carried out using GraphPad Prism 7 software and all data used for statistical analysis consists of measurements from distinct cells. Where applicable a parametric, unpaired, two-tailed t-test was used for statistical testing.

CHO cells = test: Live cell confocal microscopy: cellular uptake and intracellular distribution of Tat conjugates in CHO cells; type: cell-based, Chinese hamster; details: 1 μM, 60 min, serum-free DMEM, post-wash
Procedure: The cellular uptake and intracellular distribution of Tat-trimers and monomeric controls was investigated by performing live cell confocal microscopy of HeLa (human, cervical cancer) and CHO (Chinese hamster, epithelial) cells incubated with Tat conjugates (1 μM) in serum-free DMEM (60 min). Following washing, images were acquired using a Zeiss 780 confocal microscope fitted with an incubation chamber (FIG. 2). In accordance with observations that free Tat in the cytosol readily enters the nucleus and strongly binds to nucleoli,^29 homogenous staining of cytoplasm and nucleoli were considered as indicative of cells having accumulated free conjugate, not confined to endosomes, for quantification purposes. […] The uptake and intracellular distribution of tri-Tat A is similar in live Hela and CHO cells (FIG. 2b,d,e).
as §1

For N=C(N)NCCC[C@@H]1NC(=O)[C@H](CCCNC(=N)N)NC(=O)[C@H](CCCNC(=N)N)NC(=O)[C@H](CCC(N)=O)NC(=O)[C@H](CCCNC(=N)N)NC(=O)[C@H](CCCNC(=N)N)NC(=O)[C@H](CCCCN)NC(=O)[C@H](CCCCN)NC(=O)[C@H](CCCNC(=N)N)NC(=O)[C@H](CCCCn2cc(COCC(COCc3cn(CCCCCCNC(=O)c4ccc5c(c4)C(=O)OC54c5ccc(N)c(S(=O)(=O)O)c5Oc5c4ccc(N)c5S(=O)(=O)O)nn3)(COCc3cn(CCCC[C@@H]4NC(=O)CC[C@@H](C(N)=O)NC(=O)[C@H](CCCNC(=N)N)NC(=O)[C@H](CCCNC(=N)N)NC(=O)[C@H](CCCNC(=N)N)NC(=O)[C@H](CCC(N)=O)NC(=O)[C@H](CCCNC(=N)N)NC(=O)[C@H](CCCNC(=N)N)NC(=O)[C@H](CCCCN)NC(=O)[C@H](CCCCN)NC(=O)[C@H](CCCNC(=N)N)NC4=O)nn3)COCc3cn(CCCC[C@@H]4NC(=O)CC[C@@H](C(N)=O)NC(=O)[C@H](CCCNC(=N)N)NC(=O)[C@H](CCCNC(=N)N)NC(=O)[C@H](CCCNC(=N)N)NC(=O)[C@H](CCC(N)=O)NC(=O)[C@H](CCCNC(=N)N)NC(=O)[C@H](CCCNC(=N)N)NC(=O)[C@H](CCCCN)NC(=O)[C@H](CCCCN)NC(=O)[C@H](CCCNC(=N)N)NC4=O)nn3)nn2)NC(=O)CC[C@@H](C(N)=O)NC1=O (some centres unmarked) [tri-cTat B], the “association with plasma membrane (profile plots)” value (HeLa cells) was “little association with plasma membrane” and the “cellular uptake and intracellular distribution” value (CHO cells) was “taken up into the cytosol and nucleoli”.
